# Measured values published in PMC3820767, “Turning Defense into Offense: Defensin Mimetics as Novel Antibiotics Targeting Lipid II” (PLoS Pathogens, 2013).
# Like-named read-outs stand apart in the source and are kept apart here.
# Columns and labels:
# [1] = system: Staphylococcus aureus ATCC 29213; assay: Antibacterial killing, 96-well turbidimetric (modified vCC) assay; assay type: cell-based; conditions: Table S3; concentration at which 100% killing occurred, no bacterial regrowth; No = not active
# Method: (§1) The antibacterial activity of defensin mimetics against Staphylococcus aureus ATCC 29213 and Escherichia coli 25922 was carried out in a 96-well turbidimetric assay essentially as described previously with the following modifications: bacteria were exposed for 30 min to compounds in 10 mM phosphate buffer containing 5% DMSO prior to addition of 2× Muller-Hinton medium. Bacterial growth was monitored for 12 hours and data were analyzed as described. Determination of MICs was performed by Micromyx, LLC (Kalamazoo, Michigan) according to CLSI standards.
# [2] = system: Escherichia coli ATCC 25922; assay: as above; assay type: cell-based; conditions: Table S3; concentration at which 100% killing occurred, no bacterial regrowth; No = not active
# Method: as §1
# Caco-2 = assay: Cytotoxicity by MTT assay; assay type: cell-based, human
# [3] = Surface Plasmon Resonance binding to immobilized 3-Lipid II; conditions: Table S3; SPR, initial determination at 10 µM
# Method: Surface Plasmon Resonance binding experiments were carried out on a BIAcore T100 system (BIAcore Inc., Piscataway, NY) at 25°C. The assay buffer was 10 mM HEPES, 150 mM NaCl, 0.05% surfactant P20, pH 7.4 (±3 mM EDTA) supplemented with 10% DMSO. […] For initial determination of binding, defensin mimetics were introduced into the flow-cells (30 µl/min) in the running buffer at 10 µM. Resonance signals were corrected for nonspecific binding by subtracting the background of the control flow-cell. After each analysis, the sensor chip surfaces were regenerated with 50 mM NaOH for 30 s at a flow rate 100 µl/min, and equilibrated with the buffer prior to next injection. For binding kinetics studies, binding isotherms were analyzed with manufacturer-supplied software for BIAcore T100.
SMILES,active against S.aureus (IC100%) [1],active against E.coli (IC100%) [2],cytotoxic for Caco II (C50% survival) (Caco-2),Binding on Lipid II? [3],IC50 (Caco-2) [µM],"cytotoxic for Caco II (C50% survival) (Caco-2; Table S3, No = not cytotoxic)","IC50 (Caco-2; Table S3, No = not cytotoxic, read-out: cytotoxic for Caco II (C50% survival)) [µM]"
"C(#Cc1ccccc1)CN(CC#Cc1ccccc1)CCCCCCN(CC#Cc1ccccc1)CC#Cc1ccccc1.Cl.Cl [Compound 5230300, N,N,N',N'-tetrakis(3-phenyl-2-propyn-1-yl)-1,6-hexanediamine dihydrochloride]",No,No,No,No,–,–,–
"CCCCN(CC#Cc1ccc(C#CCN(CCCC)CCCC)cc1)CCCC.Cl.Cl [Compound 5230313, 3,3'-(1,4-phenylene)bis(N,N-dibutyl-2-propyn-1-amine) dihydrochloride]",No,No,–,Yes,366,–,–
"Fc1ccc(N2CCN(Cc3ccc(-c4ccccc4)cc3)CC2)cc1 [Compound 5267798, 1-(4-biphenylylmethyl)-4-(4-fluorophenyl)piperazine]",No,No,No,No,–,–,–
"Clc1ccc(N2CCN(Cc3ccc(-c4ccccc4)cc3)CC2)cc1 [Compound 5270046, 1-(4-biphenylylmethyl)-4-(4-chlorophenyl)piperazine]",No,No,No,No,–,–,–
"FC(F)(F)c1cccc(N2CCN(Cc3ccc4c(c3)Cc3ccccc3-4)CC2)c1 [Compound 5418391, 1-(9H-fluoren-2-ylmethyl)-4-[3-(trifluoromethyl)phenyl]piperazine]",No,No,–,No,159,–,–
"FC(F)(F)c1cccc(N2CCN(CCc3ccccc3)CC2)c1 [Compound 5422765, 1-(2-phenylethyl)-4-[3-(trifluoromethyl)phenyl]piperazine]",No,No,–,Yes,130,–,–
"CCN(CC)c1ccc(CN2CCN(c3cccc(C(F)(F)F)c3)CC2)cc1 [Compound 5427129, N,N-diethyl-4-({4-[3-(trifluoromethyl)phenyl]-1-piperazinyl}methyl)aniline]",(No),No,–,Yes,192,–,–
"CN(C)c1ccc(C=CCN2CCN(Cc3ccccc3)CC2)cc1 [Compound 5429346, 4-[3-(4-benzyl-1-piperazinyl)-1-propen-1-yl]-N,N-dimethylaniline]",500 µM,No,–,Yes,132,–,–
"CCCN1CCC(NCc2cccc(C(F)(F)F)c2)CC1 [Compound 5452876, 1-propyl-N-[3-(trifluoromethyl)benzyl]-4-piperidinamine]",No,No,No,No,–,–,–
"Fc1ccc(N2CCN(C3CCN(Cc4ccccc4)CC3)CC2)cc1 [Compound 5457685, 1-(1-benzyl-4-piperidinyl)-4-(4-fluorophenyl)piperazine]",No,No,No,No,–,–,–
"CC(CCc1ccc(O)cc1)NCCc1ccccc1 (stereo not drawn) [Compound 5460400, 4-{3-[(2-phenylethyl)amino]butyl}phenol]",No,No,–,No,–,No,–
"CC[n+]1c(/C=C/C=C2\N(C)c3ccccc3C2(C)C)sc2ccccc21.[O-][Cl+3]([O-])([O-])[O-] [Compound 5660386, 3-ethyl-2-[(1E)-3-[(2Z)-1,3,3-trimethyl-2,3-dihydro-1H-indol-2-ylidene]prop-1-en-1-yl]-1,3-benzothiazol-3-ium perchlorate]","7,8 µM",125 µM,–,No,–,–,5.6
"Cc1ccc(CN2CCC(N3CCN(c4ccccc4F)CC3)CC2)cc1 [Compound 6711103, 1-(2-fluorophenyl)-4-[1-(4-methylbenzyl)-4-piperidinyl]piperazine]",No,No,No,No,–,–,–
"O=C(O)C(=O)O.c1ccc(CCCN2CCC(N3CCN(c4ccccc4)CC3)CC2)cc1 [Compound 6785396, 1-phenyl-4-[1-(3-phenylpropyl)-4-piperidinyl]piperazine oxalate]",No,No,–,No,168,–,–
"CC(C)(O)C#Cc1ccc(C#Cc2ccc(C#CC(C)(C)O)cc2)cc1 [Compound 7191067, 4,4'-(1,2-ethynediyldi-4,1-phenylene)bis(2-methyl-3-butyn-2-ol)]",No,No,No,No,–,–,–
"Cc1ccc(CN2C(=O)c3ccccc3C2(O)Cc2ccccc2)cc1 (stereo not drawn) [Compound 7832238, 3-benzyl-3-hydroxy-2-[(4-methylphenyl)methyl]-2,3-dihydro-1H-isoindol-1-one]",No,No,No,No,–,–,–
"CC(C)CCCC(C)C1CCC2C3CC=C4CC(O)CCC4(C)C3CCC12C (stereo not drawn) [Compound N050-0022, 2,15-dimethyl-14-(6-methylheptan-2-yl)tetracyclo[8.7.0.0^{2,7}.0^{11,15}]heptadec-7-en-5-ol]",No,No,–,No,123,–,–
"O=C(CSc1nc(-c2ccccc2)c(-c2ccccc2)n1-c1ccccc1)N1CCCc2ccccc21 [ST4098270, 1-(1,2,3,4-tetrahydroquinolin-1-yl)-2-[(1,4,5-triphenyl-1H-imidazol-2-yl)sulfanyl]ethan-1-one]",No,No,No,No,–,–,–
"CCN1/C(=C\C=C\c2sc3c4ccccc4[se]c3[n+]2CC)Sc2c1[se]c1ccccc21 [STK368153, 3-ethyl-2-[(1E,3E)-3-(3-ethyl[1]benzoselenopheno[2,3-d][1,3]thiazol-2(3H)-ylidene)prop-1-en-1-yl][1]benzoselenopheno[2,3-d][1,3]thiazol-3-ium]","7,8 µM","7,8 µM",–,Yes,9.6,–,–
"CCn1c2ccccc2c2cc(N/C=C(\C#N)c3nc(-c4ccc(C)cc4C)cs3)ccc21 [STK537076, (2E)-2-[4-(2,4-dimethylphenyl)-1,3-thiazol-2-yl]-3-[(9-ethyl-9H-carbazol-3-yl)amino]prop-2-enenitrile]",No,No,–,No,240,–,–
"CCN1/C(=C/C=C/C=C/C2=CC(=C/c3sc4ccccc4[n+]3CC)/CC(C)(C)C2)Sc2ccccc21 [STK792971, 3-ethyl-2-[(E)-{3-[(1E,3E,5Z)-5-(3-ethyl-1,3-benzothiazol-2(3H)-ylidene)penta-1,3-dien-1-yl]-5,5-dimethylcyclohex-2-en-1-ylidene}methyl]-1,3-benzothiazol-3-ium]","62,5 µM",No,No,No,–,–,–
"CC[n+]1c(/C=C/C=C/N(C(C)=O)c2ccccc2)sc2cc(OC)ccc21 [STK874226, 2-{(1E,3E)-4-[acetyl(phenyl)amino]buta-1,3-dien-1-yl}-3-ethyl-6-methoxy-1,3-benzothiazol-3-ium]",125 µM,250 µM,No,No,–,–,–
"COc1ccc(-c2cn(CC(=O)N(c3ccccc3)C(C)C)c3[n+]2CCC3)cc1 [STL050072, 3-(4-methoxyphenyl)-1-{2-oxo-2-[phenyl(propan-2-yl)amino]ethyl}-1,5,6,7-tetrahydropyrrolo[1,2-a]imidazol-4-ium]",No,No,–,No,340,–,–
"CN1CCC(N(Cc2ccccc2)C(=O)CCc2ccc3c(c2)n(C)c(=O)n3C)CC1 [SYN22879441, N-Benzyl-3-(1,3-dimethyl-2-oxo-2,3-dihydro-1H-benzoimidazol-5-yl)-N-(1-methyl-piperidin-4-yl)-propionamide]",No,No,No,No,–,–,–
